Laboratory results as given in EP4711470A1, “METHOD AND KIT FOR EVALUATING ENZYME ACTIVITY” (The University of Tokyo, priority 2023, dated 2025).

Legend:
[1] = Fluorescence characteristics of reduction products; details: may be values measured in PBS at pH 7.4
Text: These fluorescence characteristics may be values measured, for example, in phosphate-buffered saline (PBS) at pH 7.4.

lactate dehydrogenase = assay: Single-molecule coupled assay of lactate dehydrogenase oxidative activity in human plasma (microchamber array); type: biochemical; details: for S/N ratio compared with SiRWST-3 or Q-dsAMC as fluorescent probe: same experiment, with SiRWST-3, 100 µM 1-MeO-PMS in place of NADH:quinone oxidoreductase
Method: To a HEPES buffer (100 mM, pH 7.4) containing CaCl2 (1 mM), MgCl2 (1 mM), DTT (dithiothreitol, 100 µM), and Triton X-100 (200 µM), Q-sHMRG (30 µM), Q-HMRG (30 µM) or resazurin (30 µM), lactate (1 mM), NAD^+ (oxidized nicotinamide adenine dinucleotide, 500 µM), and NADH:quinone oxidoreductase (50 µg/mL, Toyobo, DAD-311) were added. Then, plasma obtained from a healthy human subject was added to give a 3000-fold dilution (preparation step, Step (A)). 40 µL of the solution (a pre-encapsulation aqueous solution) thus prepared was introduced into a microchamber array Simoa (registered trademark) disk (Quanterix). Subsequently, 80 µL of Fluorinert (registered trademark) FC-70 (Sigma-Aldrich) as a hydrophobic solvent was introduced into the microchamber array to remove an aqueous solution not introduced into wells, and thereby W/O droplets were formed in wells. After incubation at room temperature for 3 hours (reaction step, Step (B)), fluorescence images were acquired by an epifluorescence microscope Ti2 (Nikon) equipped with a 20× objective lens (Plan Apo 20×), an sCMOS camera (ORCA-Fusion C14440, Hamamatsu Photonics), a white light unit (X-Cite Xylis, Opto Science), and a motorized stage (fluorescence measurement step, Step (C)).

[2] = system: NADH:quinone oxidoreductase; assay: Reactivity of Q-sHMRG with DT-diaphorase and increase in fluorescence; type: biochemical, microorganism; details: 1 µM probe, HEPES buffer pH 7.4, 25°C
Method: Q-sHMRG prepared in Synthesis Example 1 was dissolved to give a final concentration of 1 µM in a HEPES buffer (100 mM, pH 7.4) containing CaCl2 (1 mM), MgCl2 (1 mM), DTT (dithiothreitol, 100 µM), and Triton X-100 (250 µM), and an absorption spectrum was measured. Then, NADH (100 µM) and NADH:quinone oxidoreductase (10 µg/mL, Toyobo, DAD-311) were added, and after incubation at 25°C for 4 hours, an absorption spectrum was measured again. Results are shown in (A) of FIG. 1.
Also, Q-sHMRG prepared in Synthesis Example 1 was dissolved to give a final concentration of 1 µM in a HEPES buffer (100 mM, pH 7.4) containing CaCl2 (1 mM), MgCl2 (1 mM), DTT (dithiothreitol, 100 µM), and Triton X-100 (250 µM), and then NADH at various concentrations and NADH:quinone oxidoreductase (10 µg/mL) were added. After incubation at 25°C for 30 minutes, fluorescence intensity was measured. Results are shown in (B) and (C) of FIG. 1.

| SMILES | molar extinction coefficient ([1]; at maximum absorption wavelength) [L/mol/cm] | fluorescence quantum yield [1] | mathematical product of molar extinction coefficient and fluorescence quantum yield [1] | maximum absorption wavelength [1] [nm] | maximum fluorescence wavelength [1] [nm] | S/N ratio compared with SiRWST-3 or Q-dsAMC as fluorescent probe (lactate dehydrogenase) | fluorescence intensity increased by a reduction reaction by NADH:quinone oxidoreductase ([2]; NADH, NADH:quinone oxidoreductase 10 µg/mL (DAD-311)) [fold] | lowest quantity of NADH that the combination of probe and NADH:quinone oxidoreductase can detect ([2]; NADH:quinone oxidoreductase 10 µg/mL, 30 minutes) [µM] | ratio (S/N ratio) of fluorescence intensity of a well encapsulating lactate dehydrogenase to a well not encapsulating it (lactate dehydrogenase; 30 µM probe, lactate 1 mM, NAD+ 500 µM, plasma 3000-fold dilution, 3 hours, compared among Q-sHMRG, Q-HMRG and resazurin) |
| --- | --- | --- | --- | --- | --- | --- | --- | --- | --- |
| N=c1ccc2c(-c3ccc(S(=O)(=O)O)cc3CO)c3ccc(N)cc3oc-2c1 [sHMRG, 3',6'-diamino-3H-spiro[isobenzofuran-1,9'-xanthene]-5/6-sulfonic acid] | 80000 | 0.92 | 74000 | 498 | 517 | – | – | – | – |
| O=c1ccc2[n+]([O-])c3ccc(O)cc3oc-2c1 [resazurin, reference compound] | – | – | – | – | – | larger | – | – | – |
| CC1=C(C)C(=O)C(C(C)(C)CC(=O)Nc2ccc3c(c2)Oc2cc(N)ccc2C32OCc3ccc(S(=O)(=O)O)cc32)=C(C)C1=O (stereo not shown) [Q-sHMRG] | – | – | – | – | – | larger | 235 | 0.01 | greater |
